Data published in patent publication US20230287021A1, “COMPOUNDS, COMPOSITIONS AND METHODS FOR STABILIZING TRANSTHYRETIN AND INHIBITING TRANSTHYRETIN MISFOLDING” (Protego Biopharma, Inc., priority 2020, published 2023).

Tests used:
[1] = In vitro rat liver S9 stability assay, formation of tafamidis; format: in vitro ADME; details: rat liver S9, 37° C., 1 µM test compound
Method: The test compound was added to liver S9 and incubated at 37° C. in a water bath at a concentration of 1 µM. At each time point (0, 5, 10, 20, 30 and 60 min), stop solution (tolbutamide plus labetalol) was added to precipitate protein and mixed thoroughly. After centrifugation, an aliquot of supernatant was analyzed by LC-MS/MS. The percentage of formation of active agent was calculated at each time point.

[2] = In vivo rat PK: tafamidis in plasma, CSF and brain; design: species or system Male Sprague-Dawley (SD) rats; details: for Tafamidis CSF/Plasma Ratio over 24 hrs (po): po administration of test compound
Source text: For a compound provided herein to be an effective TTR stabilizer drug to halt and/or prevent the ocular and cerebral TTR amyloid deposition TTR amyloidosis, it has to be able to penetrate into the brain and CSF (surrogate for eye penetration) and deliver a sufficient amount of TTR stabilizer to stop TTR dissociation. A pharmacokinetic study in rat was used to evaluate the compounds. Male Sprague-Dawley (SD) rats (200-220 g weight) were acclimated for at least 2 to 3 days before being placed on study. All animals had access to certified rodent diet and water at libitum. Appropriate amount of the test compound was accurately weighed and mixed with appropriate volume of vehicle (such as DMSO/sterile water for iv dosing or 0.5% methylcellulose homogenous suspension or solution for oral administration or as a solution in a mixture NMP/PEG400/solutol/water) to administer a dose of 2, 5 or 10 mg/kg. For IV dosing the test compound was administered via tail vein or indwelling cannula. For oral dosing, the test compound was administered by oral gavage. Blood and CSF samples were collected at selected timepoints. Blood collection was performed from saphenous vein or tail vein of each animal into polypropylene tubes at each timepoint. All blood samples were transferred into EDTA-K2 tubes and centrifuged for 15 minutes at 4° C. for plasma collection. Plasma samples were kept at -80° C. until LC/MSMS analysis. CSF was collected from cisterna magna at each timepoint and quick frozen over dry ice and kept at -80° C. until LC/MSMS analysis. Brains were harvested immediately after the terminal bleeding (~ 24 hrs post dosing). The blood of the brain was perfused with normal saline. The brain was quickly picked and placed into centrifuge tube. The weight of brain samples was recorded. 4-Fold homogenization solution (MeOH/15 mM PBS (1:2)) was added into the tube according to the weighed samples. The brain was homogenized using a Polytron (3 strokes or more until homogenous, each 30 seconds) on wet ice. The samples were quick frozen over dry ice and kept at -80° C. until LC/MSMS analysis. Using a LC-MSMS method for the quantitative determination of test compound in biological matrixes, amount of test compound and active agent were measured in plasma and CSF at selected timepoints post-dosing and in brain at 24 hrs post dosing. Plasma concentration versus time data was analyzed by non-compartmental approaches using the Phoenix WinNonlin 6.3 software program. As reference, an oral dose of 2 mg/kg of tafamidis gave a CSF to plasma ratio over 24 hrs around 0.01 and a brain to plasma ratio at 24 hrs around 0.02.

[3] = In vitro rat plasma stability assay, formation of tafamidis; format: in vitro ADME; details: 37° C., 2 µM test compound
Procedure, shortened: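 Compound at 2 µM incubated in rat plasma at 37 °C, sampled at 0, 10, 30, 60, 120 min or 0, 60, 120, 180, 240 min. Protein precipitated, supernatant analyzed by LC-MS/MS, and percentage formation of tafamidis calculated per time point.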

[4] = tafamidis-treated FAP patients, cited from earlier work

For `O=C(OC1CCN(CC(F)(F)F)C1)c1ccc2nc(-c3cc(Cl)cc(Cl)c3)oc2c1` (stereo not drawn) [Compound 151], the “Formation of tafamidis at 60 min” value [1] was “D (D is ≥75%)”, the “Tafamidis CSF/Plasma Ratio over 24 hrs (po)” value (“Tafamidis CSF/Plasma Ratio” for short) [2] was “B (B is ≥0.015 to <0.02)” and the “Formation of tafamidis at 120 min” value [3] was “A (A is <25%)”.
With `O=C(OCCc1ncc[nH]1)c1ccc2nc(-c3cc(Cl)cc(Cl)c3)oc2c1` [Compound 153] the “Formation of tafamidis at 60 min” value [1] was “B (B is ≥25 to <50%)”, the “Tafamidis CSF/Plasma Ratio” value [2] was “B (B is ≥0.015 to <0.02)” and the “Formation of tafamidis at 120 min” value [3] was “B (B is ≥25 to <50%)”.
In the case of `O=C(OC1CCn2cncc21)c1ccc2nc(-c3cc(Cl)cc(Cl)c3)oc2c1` (stereo not drawn) [Compound 156, 6,7-dihydro-5H-pyrrolo[1,2-c]imidazol-7-yl 2-(3,5-dichlorophenyl)-benzo[d]oxazole-6-carboxylate], the “Formation of tafamidis at 60 min” value [1] is reported as “C (C is ≥50 to <75%)”, the “Tafamidis CSF/Plasma Ratio” value [2] is reported as “B (B is ≥0.015 to <0.02)” and the “Formation of tafamidis at 120 min” value [3] is reported as “D (D is ≥75%)”.
With `CC(OC(=O)c1ccc2nc(-c3cc(Cl)cc(Cl)c3)oc2c1)c1ccn(C)n1` (stereo not drawn) [Compound 160] the “Formation of tafamidis at 60 min” value [1] was “C (C is ≥50 to <75%)”, the “Tafamidis CSF/Plasma Ratio” value [2] was “A (A is < 0.015)” and the “Formation of tafamidis at 120 min” value [3] was “C (C is ≥50 to <75%)”.
In the case of `CC(OC(=O)c1ccc2nc(-c3cc(Cl)cc(Cl)c3)oc2c1)C1CCOC1` (stereo not drawn) [Compound 161], the “Formation of tafamidis at 60 min” value [1] is reported as “B (B is ≥25 to <50%)”, the “Tafamidis CSF/Plasma Ratio” value [2] is reported as “A (A is < 0.015)” and the “Formation of tafamidis at 120 min” value [3] is reported as “B (B is ≥25 to <50%)”.
With `CCN1CCCC(OC(=O)c2ccc3nc(-c4cc(Cl)cc(Cl)c4)oc3c2)C1` (stereo not drawn) [Compound 163] the “Formation of tafamidis at 60 min” value [1] was “B (B is ≥25 to <50%)”, the “Tafamidis CSF/Plasma Ratio” value [2] was “A (A is < 0.015)” and the “Formation of tafamidis at 120 min” value [3] was “C (C is ≥50 to <75%)”.
In the case of `O=C(OC1CCCN(CC(F)F)C1)c1ccc2nc(-c3cc(Cl)cc(Cl)c3)oc2c1` (stereo not drawn) [Compound 167, 1-(2,2-difluoroethyl)piperidin-3-yl 2-(3,5-dichlorophenyl)benzo[d]oxazole-6-carboxylate], the “Formation of tafamidis at 60 min” value [1] is reported as “C (C is ≥50 to <75%)”, the “Tafamidis CSF/Plasma Ratio” value [2] is reported as “A (A is < 0.015)” and the “Formation of tafamidis at 120 min” value [3] is reported as “C (C is ≥50 to <75%)”.
In the case of `CC(Cn1ccnc1)OC(=O)c1ccc2nc(-c3cc(Cl)cc(Cl)c3)oc2c1` (stereo not drawn) [Compound 170], the “Formation of tafamidis at 60 min” value [1] is reported as “B (B is ≥25 to <50%)”, the “Tafamidis CSF/Plasma Ratio” value [2] is reported as “A (A is < 0.015)” and the “Formation of tafamidis at 120 min” value [3] is reported as “B (B is ≥25 to <50%)”.
In the case of `O=C(O)c1ccc2nc(-c3cc(Cl)cc(Cl)c3)oc2c1` [tafamidis], the Kp ([2]; male, Sprague-Dawley, CSF and plasma, oral dose of 2 mg/kg of tafamidis, reference, read-out: CSF to plasma ratio over 24 hrs) is listed as ~0.01, the Kp at 24 h ([2]; male, Sprague-Dawley, brain and plasma, oral dose of 2 mg/kg of tafamidis, reference, read-out: brain to plasma ratio at 24 hrs) is listed as ~0.02 and the “tafamidis level in CSF relative to that in plasma” value ([4]; CSF) is listed as 2%. For the same compound, the “tafamidis/TTR stoichiometric ratio in plasma” value ([4]; plasma) was 2.4, the “tafamidis/TTR stoichiometric ratio in vitreous and CSF” value ([4]; vitreous and CSF) was ≤ 1 and the “tafamidis level in vitreous relative to that in plasma” value ([4]; vitreous) was 0.5%.
